Experimental data from patent US7101844B2, “Cytoplasmic transduction peptides and uses thereof” (Creagene, Inc., priority 2002, dated 2006).
“Also recorded” adds a separate entry of the source.

What was measured:
[1] = cited from earlier work
HeLa cells [2] = experiment: Transduction of PTD- and CTP-β-galactosidase into HeLa cells (X-gal staining after fixation); type: cell-based; conditions: for transduction potential / order of transduction potentials into HeLa cells: 100 μg/ml, 1 hr; for transduction potential: fixation; for order of transduction potentials into HeLa cells: β-galactosidase fusion, X-gal staining
From the text: Although various other substitutions could be performed, it is essential in this invention that the introduction of a positive charge by arginine and the substitution by an α-helix stabilizing amino acid should be carried out for maintaining the principle function of the PTD peptide. Therefore, as a substitute amino acid, the positively charged amino acid is restricted to arginine, and the negatively charged amino acid is restricted to glutamic acid. β-galactosidase was fused to the CTP candidate peptide, the fusion proteins were isolated and purified (see FIG. 2), and HeLa cells were treated with each of the fusion proteins. This was then followed by an analysis of the transduction potential and a determination of the extent of the cytoplasmic remaining property.
The transduction potential of the PTD and CTP candidates was tested with HeLa cells. Using a 24-well plate (Nunc), 5×10^4 HeLa cells were inoculated into high glucose DMEM (containing 10% FBS) and cultured for 36 hr. The cells were rinsed with PBS and treated with 100 μg/ml of PTD- and CTP-β-galactosidase in an opti-MEM I medium. After 1-hr incubation, cells were fixed for 10 min at room temperature with a fixation solution (2% formaldehyde, 0.2% glutaraldehyde in PBS). Then, the cells were rinsed twice with PBS, and stained for 2 hr with dye (0.1% X-gal, 5 mM potassium ferricyanide, 5 mM potassium ferrocyanide, 2 mM MgCl2 in PBS) to examine their transduction potential (see FIG. 3). The samples showing a low level of staining, even after a 2-hr staining, were incubated overnight, and then stained for the relative transduction potential. The transduction potentials of the PTD and CTP candidates into HeLa cells were seen to be in the following order: PTD5<CTP502<<CTP501=CTP506<CTP507<CTP505<CTP503=CTP504<CTP508=CTP510=MTS<CTP509<<PTD=CTP511<<CTP512.

HeLa cells [3] = experiment: Subcellular localization of CTP-β-gal by confocal scanning microscope; type: cell-based; conditions: β-galactosidase fusion protein, 100 μg/ml, 1 hr
From the text: To select cytoplamic transduction peptides (CTPs) of interest, HeLa cells were transduced with CTP-β-galactosidase, and then examined under the confocal scanning microscope. Before the confocal analysis, cells were stained with mouse anti-β-galactosidase antibody and 2nd antibodies conjugated with FITC (Fluorescence-iso-thio-cyanate) or with PE (phycoerythrin) together with DNA staining reagent (green fluorescence SYTO-16 DNA staining dye, Molecular Probe). First, HeLa cells (5×10^5 cells/ml) were plated onto a 6-well plate containing sterilized cover-slips and cultured overnight at 37° C. CO2 incubator. The cells were washed with PBS (pH 7.4) and 1 ml of an OPTI-MEM I medium was added, followed by treatment with candidate CTP-fused proteins (100 μg/ml). As a positive control, PTD-β-galactosidase fusion protein was employed, and as a negative control, only β-galactosidase protein was used. Following the treatment with candidate CTP-β-galactosidase fusion proteins, cells were incubated for 1 hr at 37° C. incubator. The cells were rinsed three times with PBS and fixed with 2% paraformaldehyde for 20 min at 4° C. HeLa cells fixed were washed twice with washing buffer (PBS containing 0.2% BSA and 0.02% sodium azide). To stain the cells with antibody, cells were pre-treated with 0.5% Triton X-100 (in PBS, Sigma) at 4° C. for 20 min. Cells were washed three times with washing buffer and then stained with mouse anti-β-galactosidase antibody (diluted 1:2,000, Sigma) for 1 hr at 4° C. as a primary antibody and then washed three times with washing buffer. Cells were then incubated with FITC-conjugated goat anti-mouse IgG (diluted 1:2,000, Jackson Laboratory) as a secondary antibody for 20 min at 4° C. Washed 3 times with the same washing buffer, cells were fixed on a slide glass with fluorescence mounting medium (DAKO) and the edge of slide glass was sealed with nail vanish.
Double staining was carried out with SYTO-16 DNA staining dye as follows: First, the cells were incubated with the primary antibodies under the same conditions and rinsed three times. Then, the cells were incubated at 4° C. for 20 min with PE-conjugated goat anti-mouse IgG PE (diluted 1:2,000, Jackson Laboratory). Washed three times with washing buffer, cells were incubated with SYTO-16 DNA staining dye (diluted 1:1,000, DAKO) for 20 min at 4° C. Cells were fixed and sealed on a slide glass and then examined under a confocal laser scanning microscope.
In the present experiment, LEICA TCS NT SP confocal microscope (LEICA Lasertech GmbH, Heidelverg, Germany) was employed, which was equipped with lager generator of argon (Ar) and krypton (Kr), scanning device, and filter capable of detecting FITC (510–550 nm) and PE (600–660) at independent channel. Photographs were taken by PL-APO X100 objective. For single staining, the cells were sectioned into 4-layers and fluorescence and transmission photographs were taken. For double staining, FITC, PE, and transmission photographs were taken using optimal respective filter.

HeLa cells [4] = experiment: Transduction potential of CTP-β-gal following treatment with trypsin (staining); type: cell-based; conditions: 50 μg/ml, 20 hr, trypsin before fixation
Procedure: HeLa cells were cultured for 1 day in DMEM (high glucose) at a density of 2×10^5/ml in 48-well plates. Cells were washed once with 1× PBS, and then incubated further for additional 20 hr in OPTI-MEM containing PTD-β-gal, MTS-β-gal, CTP501-β-gal or CTP514-β-gal, respectively, at a concentration of 50 μg/ml. Thereafter, the cells were treated with trypsin-EDTA (10×) for 3 min at 37° C. to remove the CPP-β-gal attached to the cell surface, and then rinsed twice with 1× PBS, followed by fixing with a fixation solution for 10 min at room temperature. After washing twice with 1× PBS, the cells were stained with a staining solution for 2 hr at 37° C. and photographed under a microscope (FIG. 6b).

HeLa cells [5] = experiment: Subcellular localization of CTP-FITC by confocal microscope without cell fixation; type: cell-based; conditions: FITC-labeled peptide, 25 μg/ml, 1 hr
From the text: Fixation step is inevitable for examining the subcellular localization of the transduced β-gal in the cells with antibodies. However, according to the previous reports, the fusion protein attached to cell surface is very likely to be introduced into the cell during a cell fixation procedure, which may affect its transduction potential and its subcellular localization. However, FITC-labeled membrane permeation peptides allow its subcellular localization to be observed under a confocal microscope without cell fixation. Monolayered HeLa cells were treated for 1 hr with FITC-labeled CTP, PTD or MTS at a concentration of 25 μg/ml, and washed three times with HBSS, followed by observation under a confocal microscope without cell fixation.

[6] = β-galactosidase fusion protein, HeLa cells

| Substance | transduction potential (HeLa cells [2]; [6]) | order of transduction potentials into HeLa cells (HeLa cells [2]) | cytoplasmic remaining property / subcellular localization (HeLa cells [3]) | also measured |
| --- | --- | --- | --- | --- |
| RRRRRRRRR [Arg polycationic homopolymer] |  |  |  | transduction efficiency greater than Tat PTD ([1]; Wender et al., 2000): 20 fold |
| CTP506: CTP candidate (2E4E), sequence YEREARRAARR | low-potential | CTP501=CTP506<CTP507 |  |  |
| CTP503: CTP candidate (2R11A), sequence YRRAARRAARA | excellent transduction potential | CTP505<CTP503=CTP504 |  |  |
| PTD5: PTD derivative of the Dowdy group; differs from CTP504 only by alanine at position 2, i.e. YARAARRAARR (CTP50, Table 1) [reference compound] |  | PTD5<CTP502 | relatively increased pattern in terms of the extent it remains in the cytoplasm as compared to PTD | efficiency of delivering peptides into the cell, higher than PTD (TAT) ([1]; peptides, reported by the Dowdy group): 8 fold |
| CTP504: CTP candidate (2G), sequence YGRAARRAARR | excellent transduction potential | CTP503=CTP504<CTP508 | high cytoplasmic remaining property | transduction potential as percentage of wild type PTD fusion protein (HeLa cells [2]; [6]): 10%; transduction potential higher than PTD5 (HeLa cells [2]; [6]): 20 fold |
| CTP514: CTP (2R4R5R8R9R), sequence YRRRRRRRRRR |  |  |  | β-gal activity transduced into cells (HeLa cells [4]): almost equivalent to that of the PTD; subcellular localization (HeLa cells [5]): observed only in the cytoplasm, and not in the nucleus |
| CTP508: CTP candidate (4K), sequence YARKARRAARR | excellent transduction potential; also recorded: transduction potential lower than wild type PTD; also recorded: significantly high transduction potential | CTP504<CTP508=CTP510=MTS | much stronger cytoplasmic remaining property than PTD; also recorded: much higher than the wild type PTD; also recorded: significantly high | transduction potential as percentage of wild type PTD fusion protein (HeLa cells [2]; [6]): 20%; subcellular localization (HeLa cells [5]): observed only in the cytoplasm, and not in the nucleus |
| CTP507: CTP candidate (2K), sequence YKRAARRAARR | low-potential; also recorded: excellent transduction potential | CTP506<CTP507<CTP505 |  |  |
| CTP502: CTP candidate (2P), sequence YPRAARRAARR | low-potential | PTD5<CTP502<<CTP501 |  |  |
| YGRKKRRQRRR [PTD, protein transduction domain of HIV-1 Tat protein, reference compound] |  | CTP509<<PTD=CTP511 |  | subcellular localization (HeLa cells [5]): FITC signal only in the nucleus, but not in the cytoplasm |
| CTP511: CTP candidate (2G4R8R), sequence YGRRARRRARR | transduction potential similar to the wild type PTD; also recorded: significantly high transduction potential | PTD=CTP511<<CTP512 | significantly high | transduction potential (HeLa cells [2]; β-galactosidase fusion protein, HeLa cells, listed as CTP 511): transduction potential identical to PTD; cytoplasmic remaining property / subcellular localization (HeLa cells [3]; listed as CTP 511): excellent cytoplasmic remaining property; β-gal activity transduced into cells (HeLa cells [4]): almost equivalent to that of the PTD |
| CTP513: CTP (2G4R5R8R9R), sequence YGRRRRRRRRR |  |  |  | β-gal activity transduced into cells (HeLa cells [4]): much more efficient to transduce β-gal into cells than either PTD or MTS; order of transduction potential (HeLa cells [5]): CTP512>513>>514; subcellular localization (HeLa cells [5]): observed only in the cytoplasm, and not in the nucleus |
| CTP505: CTP candidate (4E), sequence YAREARRAARR | excellent transduction potential | CTP507<CTP505<CTP503 |  |  |
| CTP501: CTP candidate (1P), sequence PARAARRAARR | low-potential | CTP502<<CTP501=CTP506 |  |  |
| CTP510: CTP candidate (2G4R), sequence YGRRARRAARR |  | CTP508=CTP510=MTS |  |  |
| CTP509: CTP candidate (2K4K), sequence YKRKARRAARR | transduction potential higher than CTP508; also recorded: transduction potential lower than wild type PTD; also recorded: significantly high transduction potential | MTS<CTP509<<PTD | much stronger cytoplasmic remaining property than PTD; also recorded: much higher than the wild type PTD; also recorded: significantly high |  |
